This note sets out measurements from US20240284907A1, “NOVEL DERIVATIVES OF NON-CODED AMINO ACIDS AND THEIR USE AS HERBICIDES” (FortePhest LTD., priority 2021, published 2024).

For the test, the system named is Seeds of Lettuce R. (Super-Jericho). Description: Filter paper bioassay with lettuce seeds: germination and early plant development, Minimal Effective Concentration (MEC). Type of test: in vivo. To be noted: lettuce seeds on filter paper, 0 to 1 mmol/l, visually assessed after 6 days. From the text: Materials: Seeds of Lettuce R. (Super-Jericho, non-sterilized) were obtained from Ben Shahar Moshe Ltd., 99% purity. The test compounds listed in the Table 2 below were synthetized de novo or purchased from different vendors.
Filter Paper Bioassays with Lettuce seeds: The protocol is following Bertin et al. 2009 and Movellan et al. 2014 with specified modifications as described below.
Seeds were placed on Whatman no. 1 filter paper (Whatman, Middlesex, U.K.) in Petri dishes (10 seeds per plate) with 2.0 ml of aqueous solution of a test material in concentration ranged from 0 (control) to 1 mmol/l were placed in a tray tilted at 45[…]. The trays were kept in dark for 48 hours and then transferred to the growth chamber with 6/18 dark/light cycle for 4 days. Each experiment was performed at least with two repeats.
The development of plants' radicle and shoots were visually assessed 6 days after the beginning of the test to determine Minimal Effective Concentration (MEC) of a test material. In the context of the invention, MEC is defined as the lowest concentration level of a test material that caused deviation (absence of germination or malformation of radicle or shoots) from the plant's development in the Control group.
For “2-(6-bromopyrimidin-4-yl)ethan-1-amine [compound 6621]”, the “Score (activity score of Minimal Effective Concentration, MEC)” value (“Score” below) is recorded as “Strong (0.01 mM)”. Consider `Brc1cc(CNCc2ccnc(Br)c2)ccn1` [compound 686, bis[(2-bromopyridin-4-yl)methyl]amine], for which the “Score” value was “Weak (Higher than 0.1 mM)”.

For the compound “4-(2,5-dichlorothiophen-3-yl)butanoic acid [compound 597]”, the “Score” value is recorded as “Moderate (0.1 mM)”. On to `O=C(O)C(O)Cc1ccnc(Br)c1` (stereo not drawn) [compound 680, 3-(2-bromopyridin-4-yl)-2-hydroxypropanoic acid], for which the “Score” value is reported as “Weak (Higher than 0.1 mM)”. Next, `O=C([O-])Cc1cnsn1.[Li+]` [compound 5776, lithium(1+) 2-(1,2,5-thiadiazol-3-yl)acetate[Li+]]: “Moderate (0.1 mM)”; “[(2-bromo-1,3-thiazol-4-yl)(difluoro)methyl]phosphonic acid [compound 5737]”: “Weak (Higher than 0.1 mM)”.

For the compound `O=C(O)C(F)(F)c1cscc1C(F)(F)F` [compound 5764, difluoro[4-(trifluoromethyl)thiophen-3-yl]acetic acid], the “Score” value is “Strong (0.01 mM)”.

Regarding `NCC(O)c1ccsc1` (stereo not drawn) [compound 590, 2-amino-1-(thiophen-3-yl)ethan-1-ol], the “Score” value is reported as “weak”. Take “(2E)-3-(2-bromo-strong-nitropyridin-4-yl)prop-2-enoic acid [compound 6608]”: the “Score” value is given as “Moderate (0.1 mM)”. Consider `O=C(O)C1Cc2nnsc2S1` (stereo not drawn) [compound 5750, 5H,6H-thieno[3,2-d][1,2,3]thiadiazole-5-carboxylic acid], for which the “Score” value is on record as “Moderate (0.1 mM)”. `O=C(NCC(F)(F)C(=O)O)c1cc(Cl)sc1Cl` [compound 5605, 3-[(2,5-dichlorothiophen-3-yl)formamido]-2,2-difluoropropanoic acid]: the “Score” value was “Weak (Higher than 0.1 mM)”. As for “{2-[(6-amino-9H-purin-9-yl)methoxy]ethoxy}methyl(2-chloro-1,3-thiazol-4-yl)acetate [compound 5752]”, the “Score” value is “Moderate (0.1 mM)”.

As to “N-(6-bromopyridin-2-yl)guanidine hydrochloride [compound 6637]”, the “Score” value was “Weak (Higher than 0.1 mM)”.

On to `O=C(O)/C=C/c1cccnc1Cl` [compound 6604, (2E)-3-(2-chloropyridin-3-yl)prop-2-enoic acid], for which the “Score” value is reported as “Moderate (0.1 mM)”. Take “(6-bromopyridin-2-yl)methyl 2-(2-chlorothiophen-3-yl)acetate [compound 5802]”: the “Score” value was “Moderate (0.1 mM)”. For the compound `CCOC(=O)C(NC(C)=O)C(F)(F)c1nnc(CCl)s1` (stereo not drawn) [compound 598, ethyl3-[5-(chloromethyl)-1,3,4-thiadiazol-2-yl]-2-acetamido-3,3-difluoropropanoate], the “Score” value was “Weak (Higher than 0.1 mM)”. As to “[3-(2-bromo-1,3-thiazol-4-yl)propyl]phosphonic acid [compound 5774]”, the “Score” value is on record as “Weak (Higher than 0.1 mM)”. For the compound “propyl[2-(1H-1,2,4-triazol-3-yl)ethyl]amine [compound 5660]”, the “Score” value is “Weak (Higher than 0.1 mM)”. Take `O=C(O)C(O)Cc1cc(Cl)sc1Cl` (stereo not drawn) [compound 585, 3-(2,5-dichlorothiophen-3-yl)-2-hydroxypropanoic acid]: the “Score” value is listed as “moderate”. For “(2,6-dibromopyridin-4-yl)-2,2-difluoroacetic acid [compound 6632]”, the “Score” value is given as “Weak (Higher than 0.1 mM)”. For the compound `O=C(O)c1nc(Cl)sc1Cl` [compound 596, 2,5-dichloro-1,3-thiazole-4-carboxylic acid], the “Score” value is recorded as “Weak (Higher than 0.1 mM)”. On to “2-[2-(2,5-dichlorothiophen-3-yl)ethyl]-1,4,5,6-tetrahydropyrimidin-5-ol [compound 5777]”, for which the “Score” value is recorded as “Weak (Higher than 0.1 mM)”. Take `O=C(O)C(F)(F)c1csc([N+](=O)[O-])n1` [compound 5719, 2,2-difluoro-2-(2-nitro-1,3-thiazol-4-yl)acetic acid]: the “Score” value is reported as “Moderate (0.1 mM)”. Consider “ethyl 2-(2-chlorooxazol-4-yl)-2,2-difluoroacetate [compound 5783]”, for which the “Score” value is reported as “Moderate (0.1 mM)”. Consider “N′-[2-(2,5-dichlorothiophen-3-yl)ethyl]-N-(3-hydroxypropyl)guanidine [compound 5725]”, for which the “Score” value is given as “Moderate (0.1 mM)”. Turning to `O=C(O)C(F)(F)c1ccncc1` [compound 6614, 2,2-difluoro-2-(pyridin-4-yl)acetic acid], the “Score” value is “Weak (Higher than 0.1 mM)”. In the case of `C[N+](C)(C)CCc1nc(Cl)sc1Cl` [compound 5680, 2-(2,5-dichloro-1,3-thiazol-4-yl)-NNN-trimethylethan-1-aminium], the “Score” value was “Weak (Higher than 0.1 mM)”. On to “methyl 2-(2-bromopyridin-4-yl)-2,2-difluoroacetate [compound 6629]”, for which the “Score” value is “Moderate (0.1 mM)”. The result for “2-amino-3-(1H-1,2,4-triazol-1-yl)propanoic acid dihydrochloride [compound 5633, 2-amino-3-(1H-1,2,4-triazol-1-yl)propanoic acid dihydrochloride [HCl]]” reads “Strong (0.01 mM)”; that for “sodium 2-(2-chloro-1,3-thiazol-5-yl)-2,2-difluoroacetate [compound 5721]”, “Moderate (0.1 mM)”; that for `O=C(O)/C=C/c1cccnc1Br` [compound 6605, (2E)-3-(2-bromopyridin-3-yl)prop-2-enoic acid], “Strong (0.01 mM)”. As for `O=C(O)/C=C/c1ccc(Cl)nc1Cl` [compound 694, (2E)-3-(2,6-dichloropyridin-3-yl)prop-2-enoic acid], the “Score” value is given as “Moderate (0.1 mM)”. Next, `O=C(O)C(=O)/C=C/c1cc(Cl)sc1Cl` [compound 5620, (3E)-4-(2,5-dichlorothiophen-3-yl)-2-oxobut-3-enoic acid]: “Weak (Higher than 0.1 mM)”; “[(2,5-dichlorothiophen-3-yl)methyl]hydrazine [compound 5610]”: “Weak (Higher than 0.1 mM)”; “2-(2-ethoxyethoxy)ethyl(2-chloro-1,3-thiazol-4-yl)acetate [compound 5800]”: “Strong (0.01 mM)”. Regarding “ethyl 2-(2-amino-5-chloro-1,3-thiazol-4-yl)-2,2-difluoroacetate [compound 5729]”, the “Score” value is on record as “Weak (Higher than 0.1 mM)”.
